Legend:
Assay in all cases: KINOMEscan competition binding
Conditions in all cases: compound 10.0 µM
MKNK2 (human) = MKNK2 (human) (UniProt Q9HBH9)
TSSK1B (human) = TSSK1B (human) (UniProt Q9BXA7)
WEE1 (human) = WEE1 (human) (UniProt P30291)
RPS6KA1 KD1 (human) = RPS6KA1 KD1 (human) (UniProt Q15418)
SNRK (human) = SNRK (human) (UniProt Q9NRH2)
CDC42BPA (human) = CDC42BPA (human) (UniProt Q5VT25)
GRK1 (human) = GRK1 (human) (UniProt Q15835)
MAP3K6 (human) = MAP3K6 (human) (UniProt O95382)
MAPK14 (human) = MAPK14 (human) (UniProt Q16539)
PKN3 (M.tuberculosis) = PKN3 (M.tuberculosis) (UniProt Q6P5Z2)
CAMK2A (human) = CAMK2A (human) (UniProt Q9UQM7)
MYO3A (human) = MYO3A (human) (UniProt Q8NEV4)
CLK1 (human) = CLK1 (human) (UniProt P49759)
TAOK3 (human) = TAOK3 (human) (UniProt Q9H2K8)
MKNK1 (human) = MKNK1 (human) (UniProt Q9BUB5)
BRSK2 (human) = BRSK2 (human) (UniProt Q8IWQ3)
VRK2 (human) = VRK2 (human) (UniProt Q86Y07)
ROCK1 (human) = ROCK1 (human) (UniProt Q13464)
EPHA3 (human) = EPHA3 (human) (UniProt P29320)
MAPK6 (human) = MAPK6 (human) (UniProt Q16659)
[1] = system: RET (human), P07949 [M918T]
CAMKK1 (human) = CAMKK1 (human) (UniProt Q8N5S9)
MAP4K1 (human) = MAP4K1 (human) (UniProt Q92918)
PKN1 (human) = PKN1 (human) (UniProt Q16512)
CRK2 (P.falciparum) = CRK2 (P.falciparum) (UniProt P61075)
CDC42BPB (human) = CDC42BPB (human) (UniProt Q9Y5S2)
MATK (human) = MATK (human) (UniProt P42679)
FGR (human) = FGR (human) (UniProt P09769)
GRK4 (human) = GRK4 (human) (UniProt P32298)
FGFR3 (human) = FGFR3 (human) (UniProt P22607)
CSNK1E (human) = CSNK1E (human) (UniProt P49674)
CLK3 (human) = CLK3 (human) (UniProt P49761)
MLTK (human) = MLTK (human) (UniProt Q9NYL2)
IRAK3 (human) = IRAK3 (human) (UniProt Q9Y616)
MAP3K13 (human) = MAP3K13 (human) (UniProt O43283)
MAP3K9 (human) = MAP3K9 (human) (UniProt P80192)
CSNK1A1 (human) = CSNK1A1 (human) (UniProt P48729)
CSNK1G1 (human) = CSNK1G1 (human) (UniProt Q9HCP0)
INSR (human) = INSR (human) (UniProt P06213)
PTK2 (human) = PTK2 (human) (UniProt Q05397)

Chain of PKN1 (human) (Q16512 whole entry, looked up): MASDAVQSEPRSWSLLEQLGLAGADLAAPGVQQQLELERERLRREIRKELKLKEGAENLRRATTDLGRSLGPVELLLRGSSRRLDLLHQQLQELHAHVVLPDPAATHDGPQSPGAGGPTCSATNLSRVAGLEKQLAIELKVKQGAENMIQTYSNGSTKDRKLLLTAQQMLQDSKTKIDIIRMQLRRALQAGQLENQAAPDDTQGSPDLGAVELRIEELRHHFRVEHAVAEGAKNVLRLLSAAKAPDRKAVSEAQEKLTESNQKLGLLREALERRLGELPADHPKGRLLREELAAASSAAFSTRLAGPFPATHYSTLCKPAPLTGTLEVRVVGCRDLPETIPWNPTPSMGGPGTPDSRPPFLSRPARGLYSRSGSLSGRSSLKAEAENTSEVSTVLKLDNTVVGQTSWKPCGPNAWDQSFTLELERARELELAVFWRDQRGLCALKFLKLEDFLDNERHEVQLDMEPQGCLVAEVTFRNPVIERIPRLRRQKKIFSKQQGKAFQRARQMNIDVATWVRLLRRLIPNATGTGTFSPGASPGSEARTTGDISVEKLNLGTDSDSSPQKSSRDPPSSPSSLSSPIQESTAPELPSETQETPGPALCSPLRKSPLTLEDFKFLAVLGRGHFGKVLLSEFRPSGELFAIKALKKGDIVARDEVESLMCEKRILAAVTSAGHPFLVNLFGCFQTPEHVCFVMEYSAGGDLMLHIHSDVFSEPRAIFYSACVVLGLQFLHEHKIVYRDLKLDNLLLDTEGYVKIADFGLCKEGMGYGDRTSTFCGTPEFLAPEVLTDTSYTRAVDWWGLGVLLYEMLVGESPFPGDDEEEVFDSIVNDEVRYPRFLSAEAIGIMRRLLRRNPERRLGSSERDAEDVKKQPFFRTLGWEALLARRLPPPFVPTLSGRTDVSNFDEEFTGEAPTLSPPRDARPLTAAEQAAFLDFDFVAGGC
Chain of MKNK1 (human) (Q9BUB5 whole entry, looked up): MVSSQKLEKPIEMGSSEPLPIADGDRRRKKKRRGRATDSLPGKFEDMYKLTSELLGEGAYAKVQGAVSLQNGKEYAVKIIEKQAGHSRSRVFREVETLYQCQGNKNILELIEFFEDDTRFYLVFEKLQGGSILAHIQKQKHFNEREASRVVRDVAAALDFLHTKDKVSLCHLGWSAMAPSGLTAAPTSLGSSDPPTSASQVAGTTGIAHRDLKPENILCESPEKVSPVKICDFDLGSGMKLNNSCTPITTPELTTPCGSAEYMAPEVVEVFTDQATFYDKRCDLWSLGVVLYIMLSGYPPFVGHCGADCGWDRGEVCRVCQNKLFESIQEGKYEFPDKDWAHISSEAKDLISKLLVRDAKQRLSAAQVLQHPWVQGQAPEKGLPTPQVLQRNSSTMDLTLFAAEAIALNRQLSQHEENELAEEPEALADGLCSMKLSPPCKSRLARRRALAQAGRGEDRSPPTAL
Chain of MAPK6 (human) (Q16659 whole entry, looked up): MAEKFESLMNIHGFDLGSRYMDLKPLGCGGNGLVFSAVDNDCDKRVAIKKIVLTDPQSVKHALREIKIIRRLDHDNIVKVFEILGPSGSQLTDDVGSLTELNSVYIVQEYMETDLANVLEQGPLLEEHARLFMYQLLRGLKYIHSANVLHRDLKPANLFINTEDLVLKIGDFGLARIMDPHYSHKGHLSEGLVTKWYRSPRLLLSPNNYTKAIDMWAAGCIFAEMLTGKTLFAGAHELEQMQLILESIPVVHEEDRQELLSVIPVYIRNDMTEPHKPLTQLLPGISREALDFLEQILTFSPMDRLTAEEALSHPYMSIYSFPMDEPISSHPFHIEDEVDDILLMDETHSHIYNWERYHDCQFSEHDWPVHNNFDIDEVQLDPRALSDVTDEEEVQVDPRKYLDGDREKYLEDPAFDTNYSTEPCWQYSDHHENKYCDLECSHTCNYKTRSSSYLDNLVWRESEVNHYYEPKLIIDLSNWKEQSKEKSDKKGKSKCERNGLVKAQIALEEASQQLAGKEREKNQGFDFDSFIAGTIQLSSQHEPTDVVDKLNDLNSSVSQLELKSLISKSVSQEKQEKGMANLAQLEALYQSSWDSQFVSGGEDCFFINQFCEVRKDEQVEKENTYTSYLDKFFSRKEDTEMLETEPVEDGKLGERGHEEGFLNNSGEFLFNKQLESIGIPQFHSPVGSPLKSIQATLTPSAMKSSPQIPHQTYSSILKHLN
Chain of MLTK (human) (Q9NYL2 whole entry, looked up): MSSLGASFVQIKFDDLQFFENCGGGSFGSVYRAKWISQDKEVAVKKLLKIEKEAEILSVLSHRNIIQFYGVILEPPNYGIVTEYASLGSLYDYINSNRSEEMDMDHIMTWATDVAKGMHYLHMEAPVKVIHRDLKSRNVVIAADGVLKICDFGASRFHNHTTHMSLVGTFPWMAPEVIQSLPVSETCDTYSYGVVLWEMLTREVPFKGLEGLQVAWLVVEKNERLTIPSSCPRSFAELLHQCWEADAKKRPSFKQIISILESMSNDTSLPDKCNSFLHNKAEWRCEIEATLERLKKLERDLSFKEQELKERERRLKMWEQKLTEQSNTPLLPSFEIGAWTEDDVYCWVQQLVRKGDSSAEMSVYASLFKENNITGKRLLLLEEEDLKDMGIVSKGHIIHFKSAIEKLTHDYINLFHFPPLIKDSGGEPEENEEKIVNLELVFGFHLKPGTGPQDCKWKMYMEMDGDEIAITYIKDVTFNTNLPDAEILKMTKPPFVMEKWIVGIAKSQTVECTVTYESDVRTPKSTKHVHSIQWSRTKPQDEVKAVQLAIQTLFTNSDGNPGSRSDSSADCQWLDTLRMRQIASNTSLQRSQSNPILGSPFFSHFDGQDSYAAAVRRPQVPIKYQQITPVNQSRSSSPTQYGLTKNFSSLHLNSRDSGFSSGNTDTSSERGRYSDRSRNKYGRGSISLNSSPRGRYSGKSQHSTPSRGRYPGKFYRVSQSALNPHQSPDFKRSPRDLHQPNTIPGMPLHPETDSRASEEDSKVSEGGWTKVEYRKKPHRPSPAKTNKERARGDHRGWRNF
Chain of MAP3K13 (human) (O43283 whole entry, looked up): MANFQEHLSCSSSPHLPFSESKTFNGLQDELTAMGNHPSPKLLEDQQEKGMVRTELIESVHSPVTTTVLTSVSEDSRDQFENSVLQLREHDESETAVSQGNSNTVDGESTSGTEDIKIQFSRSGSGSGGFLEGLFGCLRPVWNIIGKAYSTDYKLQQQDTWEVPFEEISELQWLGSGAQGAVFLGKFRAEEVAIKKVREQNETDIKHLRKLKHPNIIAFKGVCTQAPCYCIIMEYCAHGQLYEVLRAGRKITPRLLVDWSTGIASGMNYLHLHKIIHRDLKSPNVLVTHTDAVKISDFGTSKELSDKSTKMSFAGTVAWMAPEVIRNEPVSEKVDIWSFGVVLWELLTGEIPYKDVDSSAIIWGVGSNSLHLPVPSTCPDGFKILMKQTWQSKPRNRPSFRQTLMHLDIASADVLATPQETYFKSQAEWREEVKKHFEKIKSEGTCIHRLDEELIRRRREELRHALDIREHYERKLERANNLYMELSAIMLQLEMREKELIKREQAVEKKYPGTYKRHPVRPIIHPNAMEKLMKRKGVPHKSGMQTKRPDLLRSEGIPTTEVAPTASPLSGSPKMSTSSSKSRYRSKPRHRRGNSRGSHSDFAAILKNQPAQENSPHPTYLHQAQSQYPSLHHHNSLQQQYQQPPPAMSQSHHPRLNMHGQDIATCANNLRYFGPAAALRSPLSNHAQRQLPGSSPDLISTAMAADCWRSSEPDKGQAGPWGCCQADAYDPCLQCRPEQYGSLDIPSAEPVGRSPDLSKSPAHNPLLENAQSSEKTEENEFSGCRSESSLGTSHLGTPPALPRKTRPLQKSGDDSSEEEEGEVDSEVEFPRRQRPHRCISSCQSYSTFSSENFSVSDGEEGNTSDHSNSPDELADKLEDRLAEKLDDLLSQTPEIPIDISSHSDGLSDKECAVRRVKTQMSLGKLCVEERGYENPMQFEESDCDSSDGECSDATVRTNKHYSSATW
Chain of BRSK2 (human) (Q8IWQ3 whole entry, looked up): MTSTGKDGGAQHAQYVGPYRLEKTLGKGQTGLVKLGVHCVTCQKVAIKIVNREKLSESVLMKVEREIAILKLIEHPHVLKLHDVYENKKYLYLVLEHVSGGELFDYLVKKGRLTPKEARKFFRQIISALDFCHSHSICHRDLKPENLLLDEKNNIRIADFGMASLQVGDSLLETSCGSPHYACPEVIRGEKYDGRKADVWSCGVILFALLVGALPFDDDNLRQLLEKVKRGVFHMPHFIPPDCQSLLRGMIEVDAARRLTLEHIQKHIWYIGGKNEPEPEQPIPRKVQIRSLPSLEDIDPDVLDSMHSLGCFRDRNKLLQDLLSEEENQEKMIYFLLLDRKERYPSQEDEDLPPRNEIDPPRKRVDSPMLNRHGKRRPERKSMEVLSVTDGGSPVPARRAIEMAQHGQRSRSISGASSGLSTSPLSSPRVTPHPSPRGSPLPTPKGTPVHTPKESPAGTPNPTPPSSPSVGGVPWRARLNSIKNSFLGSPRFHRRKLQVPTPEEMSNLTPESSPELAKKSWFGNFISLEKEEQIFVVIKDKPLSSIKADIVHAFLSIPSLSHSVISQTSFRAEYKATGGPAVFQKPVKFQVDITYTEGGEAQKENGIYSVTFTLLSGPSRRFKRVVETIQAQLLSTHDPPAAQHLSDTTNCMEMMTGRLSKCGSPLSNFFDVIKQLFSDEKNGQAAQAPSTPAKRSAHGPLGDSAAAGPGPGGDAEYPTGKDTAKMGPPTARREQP
Chain of CSNK1E (human) (P49674 whole entry, looked up): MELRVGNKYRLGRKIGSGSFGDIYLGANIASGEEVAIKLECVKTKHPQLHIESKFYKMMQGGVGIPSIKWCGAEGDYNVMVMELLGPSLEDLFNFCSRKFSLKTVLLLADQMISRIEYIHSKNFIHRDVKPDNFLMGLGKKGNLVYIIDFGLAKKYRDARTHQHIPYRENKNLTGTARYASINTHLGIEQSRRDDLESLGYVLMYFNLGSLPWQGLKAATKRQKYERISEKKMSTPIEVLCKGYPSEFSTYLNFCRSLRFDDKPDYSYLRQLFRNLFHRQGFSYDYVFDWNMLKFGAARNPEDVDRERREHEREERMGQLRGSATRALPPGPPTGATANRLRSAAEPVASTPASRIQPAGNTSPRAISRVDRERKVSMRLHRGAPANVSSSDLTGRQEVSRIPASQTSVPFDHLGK

Row | SMILES | kinase still bound, per cent of control (MKNK2 (human)) | kinase still bound, per cent of control (TSSK1B (human)) | kinase still bound, per cent of control (WEE1 (human)) | kinase still bound, per cent of control (RPS6KA1 KD1 (human)) | kinase still bound, per cent of control (CDC42BPA (human)) | kinase still bound, per cent of control (GRK1 (human)) | kinase still bound, per cent of control (MAP3K6 (human)) | kinase still bound, per cent of control (MAPK14 (human)) | kinase still bound, per cent of control (CAMK2A (human)) | kinase still bound, per cent of control (MYO3A (human)) | kinase still bound, per cent of control (CLK1 (human)) | kinase still bound, per cent of control (TAOK3 (human)) | kinase still bound, per cent of control (MKNK1 (human)) | kinase still bound, per cent of control (BRSK2 (human)) | kinase still bound, per cent of control (EPHA3 (human)) | kinase still bound, per cent of control (MAPK6 (human)) | kinase still bound, per cent of control [1] | kinase still bound, per cent of control (CAMKK1 (human)) | kinase still bound, per cent of control (PKN1 (human)) | kinase still bound, per cent of control (CDC42BPB (human)) | further results
1 | COCC(=O)NC/C=C/c1ccc2ncnc(Nc3ccc(Oc4ccc(C)nc4)c(C)c3)c2c1 | 1.4% | 100% | 100% | 100% | 100% | 100% | 100% | 100% | 93% | 75% | 90% | 100% | 100% | 100% | 97% | 100% | 77% | 96% | 100% | 96% | kinase still bound, per cent of control (SNRK (human)): 71%; kinase still bound, per cent of control (PKN3 (M.tuberculosis)): 23%; kinase still bound, per cent of control (VRK2 (human)): 100%; kinase still bound, per cent of control (ROCK1 (human)): 100%; kinase still bound, per cent of control (MAP4K1 (human)): 91%; kinase still bound, per cent of control (CRK2 (P.falciparum)): 100%; kinase still bound, per cent of control (MATK (human)): 100%; kinase still bound, per cent of control (FGR (human)): 89%; kinase still bound, per cent of control (GRK4 (human)): 100%; kinase still bound, per cent of control (FGFR3 (human)): 100%; kinase still bound, per cent of control (CSNK1E (human)): 100%; kinase still bound, per cent of control (CLK3 (human)): 100%; kinase still bound, per cent of control (MLTK (human)): 76%; kinase still bound, per cent of control (IRAK3 (human)): 82%; kinase still bound, per cent of control (MAP3K13 (human)): 80%; kinase still bound, per cent of control (MAP3K9 (human)): 74%; kinase still bound, per cent of control (CSNK1A1 (human)): 100%; kinase still bound, per cent of control (CSNK1G1 (human)): 100%
2 | CCN(CC)CCCCNc1ncc2c(n1)N(C)C(=O)N(c1c(Cl)c(OC)cc(OC)c1Cl)C2 | 100% | 100% | 100% | 100% | 100% | 100% | 100% | 100% | 100% | 100% | 100% | 0.4% | 100% | 100% | 100% | 100% | 100% | 100% | 100% | 100% | kinase still bound, per cent of control (ROCK1 (human)): 100%; kinase still bound, per cent of control (INSR (human)): 100%; kinase still bound, per cent of control (MAP4K1 (human)): 100%; kinase still bound, per cent of control (PTK2 (human)): 100%; kinase still bound, per cent of control (MATK (human)): 100%; kinase still bound, per cent of control (FGR (human)): 100%; kinase still bound, per cent of control (GRK4 (human)): 100%; kinase still bound, per cent of control (FGFR3 (human)): 3.3%; kinase still bound, per cent of control (CSNK1E (human)): 100%; kinase still bound, per cent of control (CLK3 (human)): 100%; kinase still bound, per cent of control (MLTK (human)): 100%; kinase still bound, per cent of control (IRAK3 (human)): 100%; kinase still bound, per cent of control (MAP3K13 (human)): 100%; kinase still bound, per cent of control (MAP3K9 (human)): 100%; kinase still bound, per cent of control (CSNK1G1 (human)): 100%
3 | COc1cc(N2CCN(C)CC2)ccc1Nc1ncc2c(n1)N(C)c1ccccc1C(=O)N2C | 0% | 100% | 100% | 100% | 100% | 100% | 100% | 100% | 32% | 100% | 100% | 2% | 100% | 100% | 100% | 100% | 100% | 100% | 100% | 100% | kinase still bound, per cent of control (ROCK1 (human)): 100%; kinase still bound, per cent of control (INSR (human)): 100%; kinase still bound, per cent of control (MAP4K1 (human)): 100%; kinase still bound, per cent of control (PTK2 (human)): 16%; kinase still bound, per cent of control (MATK (human)): 100%; kinase still bound, per cent of control (FGR (human)): 100%; kinase still bound, per cent of control (GRK4 (human)): 100%; kinase still bound, per cent of control (FGFR3 (human)): 100%; kinase still bound, per cent of control (CSNK1E (human)): 100%; kinase still bound, per cent of control (CLK3 (human)): 100%; kinase still bound, per cent of control (MLTK (human)): 100%; kinase still bound, per cent of control (IRAK3 (human)): 100%; kinase still bound, per cent of control (MAP3K13 (human)): 100%; kinase still bound, per cent of control (MAP3K9 (human)): 100%; kinase still bound, per cent of control (CSNK1G1 (human)): 100%
4 | NC(=O)Nc1cc(-c2cccc(F)c2)sc1C(=O)N[C@@H]1CCCNC1 | 0% | 2.6% | 50% | 11% | 62% | 0.6% | 25% | 100% | 3.6% | 4.2% | 1.2% | 2.9% | 6% | 2.8% | 0.2% | 54% | 0% | 7% | 0% | 74% | kinase still bound, per cent of control (SNRK (human)): 2.6%; kinase still bound, per cent of control (PKN3 (M.tuberculosis)): 0%; kinase still bound, per cent of control (VRK2 (human)): 92%; kinase still bound, per cent of control (INSR (human)): 27%; kinase still bound, per cent of control (PTK2 (human)): 0.1%; kinase still bound, per cent of control (CRK2 (P.falciparum)): 100%; kinase still bound, per cent of control (MATK (human)): 34%; kinase still bound, per cent of control (FGR (human)): 0.2%; kinase still bound, per cent of control (GRK4 (human)): 0%; kinase still bound, per cent of control (FGFR3 (human)): 16%; kinase still bound, per cent of control (CSNK1E (human)): 11%; kinase still bound, per cent of control (CLK3 (human)): 62%; kinase still bound, per cent of control (MLTK (human)): 40%; kinase still bound, per cent of control (IRAK3 (human)): 6.4%; kinase still bound, per cent of control (MAP3K13 (human)): 7%; kinase still bound, per cent of control (MAP3K9 (human)): 0.15%; kinase still bound, per cent of control (CSNK1A1 (human)): 0.5%; kinase still bound, per cent of control (CSNK1G1 (human)): 7.6%

Source: the kinase profiling compilation of Christmann-Franck et al. (2016)
